Experimental data: the NIST ThermoML archive (doi:10.1021/je400055v)

Experiment: xn = mol fraction of the nth substance listed
Details: Liquid, Vibrating tube method

CCCCCCCCCCC [undecane] + CCCCCCC
Details	mass density [kg/m3]
333.04 K, 8001 kPa, x2 = 0.5063	694.1
333.04 K, 9000 kPa, x2 = 0.5063	695
333.04 K, 10000 kPa, x2 = 0.5063	696
333.04 K, 11000 kPa, x2 = 0.5063	696.9
333.04 K, 12000 kPa, x2 = 0.5063	697.8
333.04 K, 13000 kPa, x2 = 0.5063	698.7
333.04 K, 14000 kPa, x2 = 0.5063	699.6
333.04 K, 15000 kPa, x2 = 0.5063	700.5
333.04 K, 16000 kPa, x2 = 0.5063	701.4
333.04 K, 17001 kPa, x2 = 0.5063	702.2
333.04 K, 18000 kPa, x2 = 0.5063	703.1
333.04 K, 19000 kPa, x2 = 0.5063	703.9
333.04 K, 20000 kPa, x2 = 0.5063	704.7
333.04 K, 21001 kPa, x2 = 0.5063	705.6
333.04 K, 22050 kPa, x2 = 0.5063	706.3
333.04 K, 23000 kPa, x2 = 0.5063	707.1
333.04 K, 24000 kPa, x2 = 0.5063	707.9
333.04 K, 25000 kPa, x2 = 0.5063	708.7
333.05 K, 1000 kPa, x2 = 0.7482	670.8
333.05 K, 2000 kPa, x2 = 0.7482	672
333.05 K, 3000 kPa, x2 = 0.7482	673.1
333.05 K, 4000 kPa, x2 = 0.7482	674.3
333.05 K, 5000 kPa, x2 = 0.7482	675.4
333.05 K, 6000 kPa, x2 = 0.7482	676.4
333.05 K, 7000 kPa, x2 = 0.7482	677.5
333.05 K, 8000 kPa, x2 = 0.7482	678.6
333.05 K, 9000 kPa, x2 = 0.7482	679.6
333.05 K, 10000 kPa, x2 = 0.7482	680.6
333.05 K, 11000 kPa, x2 = 0.7482	681.6
333.05 K, 12000 kPa, x2 = 0.7482	682.6
333.05 K, 13000 kPa, x2 = 0.7482	683.6
333.05 K, 14000 kPa, x2 = 0.7482	684.5
333.05 K, 15000 kPa, x2 = 0.7482	685.4
333.05 K, 16000 kPa, x2 = 0.7482	686.4
333.05 K, 17000 kPa, x2 = 0.7482	687.3
333.05 K, 18000 kPa, x2 = 0.7482	688.2
333.05 K, 19000 kPa, x2 = 0.7482	689
333.05 K, 20000 kPa, x2 = 0.7482	689.9
333.05 K, 21000 kPa, x2 = 0.7482	690.8
333.05 K, 22000 kPa, x2 = 0.7482	691.6
333.05 K, 23000 kPa, x2 = 0.7482	692.4
333.05 K, 24000 kPa, x2 = 0.7482	693.2
333.05 K, 25000 kPa, x2 = 0.7482	694
333.09 K, 1001 kPa, x2 = 0.05	709.1
333.09 K, 1004 kPa, x2 = 0.2346	701.3
333.09 K, 2001 kPa, x2 = 0.05	710.1
333.09 K, 2004 kPa, x2 = 0.2346	702.3
333.09 K, 3000 kPa, x2 = 0.05	711
333.09 K, 3003 kPa, x2 = 0.2346	703.3
333.09 K, 4000 kPa, x2 = 0.05	712
333.09 K, 4003 kPa, x2 = 0.2346	704.2
333.09 K, 5000 kPa, x2 = 0.05	712.9
333.09 K, 5003 kPa, x2 = 0.2346	705.2
333.09 K, 6000 kPa, x2 = 0.05	713.8
333.09 K, 6003 kPa, x2 = 0.2346	706.1
333.09 K, 7000 kPa, x2 = 0.05	714.7
333.09 K, 7003 kPa, x2 = 0.2346	707
333.09 K, 8001 kPa, x2 = 0.05	715.6
333.09 K, 8002 kPa, x2 = 0.2346	708
333.09 K, 9000 kPa, x2 = 0.05	716.5
333.09 K, 9002 kPa, x2 = 0.2346	708.9
333.09 K, 10000 kPa, x2 = 0.05	717.3
333.09 K, 10002 kPa, x2 = 0.2346	709.7
333.09 K, 11000 kPa, x2 = 0.05	718.2
333.09 K, 11002 kPa, x2 = 0.2346	710.6
333.09 K, 12000 kPa, x2 = 0.05	719
333.09 K, 12002 kPa, x2 = 0.2346	711.5
333.09 K, 13000 kPa, x2 = 0.05	719.9
333.09 K, 13001 kPa, x2 = 0.2346	712.3
333.09 K, 14000 kPa, x2 = 0.05	720.7
333.09 K, 14001 kPa, x2 = 0.2346	713.2
333.09 K, 15000 kPa, x2 = 0.05	721.5
333.09 K, 15002 kPa, x2 = 0.2346	714
333.09 K, 16000 kPa, x2 = 0.05	722.3
333.09 K, 16002 kPa, x2 = 0.2346	714.8
333.09 K, 17000 kPa, x2 = 0.05	723.1
333.09 K, 17002 kPa, x2 = 0.2346	715.6
333.09 K, 18000 kPa, x2 = 0.05	723.8
333.09 K, 18002 kPa, x2 = 0.2346	716.4
333.09 K, 19000 kPa, x2 = 0.05	724.6
333.09 K, 19001 kPa, x2 = 0.2346	717.2
333.09 K, 20000 kPa, x2 = 0.05	725.4
333.09 K, 20002 kPa, x2 = 0.2346	718
333.09 K, 21000 kPa, x2 = 0.05	726.1
333.09 K, 21035 kPa, x2 = 0.2346	718.8
333.09 K, 22001 kPa, x2 = 0.05	726.8
333.09 K, 22036 kPa, x2 = 0.2346	719.5
333.09 K, 23000 kPa, x2 = 0.05	727.6
333.09 K, 23038 kPa, x2 = 0.2346	720.3
333.09 K, 24000 kPa, x2 = 0.05	728.3
333.09 K, 24039 kPa, x2 = 0.2346	721
333.09 K, 25000 kPa, x2 = 0.05	729
333.09 K, 25041 kPa, x2 = 0.2346	721.8
